Laboratory results from patent US20100034772A1, “COMPOSITIONS AND METHODS FOR IMMUNOTHERAPY” (priority 2006, published 2010).
Entries after “also recorded” stand apart in the source; their conditions may differ.

How the values were obtained:
[1] = tested on: Ge-con and Ge-Hsp70 melanoma cells; assay: 51Chromium release assay: lysis of SAHA-treated Ge-con and Ge-Hsp70 cells by LAK cells; assay type: cell-based, human; conditions: target cells 10 μM SAHA 20 h; LAK: PBMC 4 days IL-2 100 U/ml; n=4; p=0.0030, three-way ANOVA; FIG. 9B
Procedure: (§1) The human melanoma cell line Ge, the Ge-Hsp70 and Ge-con sublines derived therefrom (clones Ge-Hsp70-A, Ge-Hsp70-C, Ge-TCR-C, and Ge-GFP-B) (15), mouse fibroblast L cells, and transfected L cells were maintained in NaHCO3-buffered DMEM supplemented with 10% FCS (Biochrom, Berlin, Germany), 2 mM L-glutamine, 1 mM sodium pyruvate, 50 μM 2-mercaptoethanol and antibiotics (100 U/ml penicillin, 100 μg/ml streptomycin) (Sigma) in Petri dishes for tissue culture (Sarstedt, Nümbrecht, Germany) at 37° C. in a 10% CO2 atmosphere. Human erythroleukemia K562 and mouse lymphoma YAC-1 cells were maintained under the same conditions in Petri dishes for suspension cells (Sarstedt). […] MICA mRNA expression was analyzed by Northern blot and cell surface expression by flow cytometry. […]
(§2) Target cells were labeled by incubating 1×10^6 cells in 200 μl HEPES-buffered DMEM containing 100 μl FCS and 50 μCi Na2^51CrO4 (ICN Biomedicals, Eschwege, Germany) for 1 h at 37° C. and washed three times with HEPES-buffered DMEM. […] Spontaneous release was determined by incubation of target cells in the absence of effector cells. […]

[2] = tested on: Ge-con and Ge-Hsp70 melanoma cells; assay: Flow cytometry of cell surface MICA/B, NKG2D ligands and HSP70 on Ge melanoma cells after histone deacetylase inhibitor; assay type: cell-based, human; conditions: FIG. 9A; for HSP70 cell surface expression on Ge cells after histone deacetylase inhibitor treatment: SAHA 10 μM, 20 h, mAb RPN 1197; for MICA/B cell surface expression on Ge-con and Ge-Hsp70 cells: histone deacetylase inhibitor treatment (SAHA 10 μM, 20 h)
Procedure: (§3) The human melanoma cell line Ge, the Ge-Hsp70 and Ge-con sublines derived therefrom (clones Ge-Hsp70-A, Ge-Hsp70-C, Ge-TCR-C, and Ge-GFP-B) (15), mouse fibroblast L cells, and transfected L cells were maintained in NaHCO3-buffered DMEM supplemented with 10% FCS (Biochrom, Berlin, Germany), 2 mM L-glutamine, 1 mM sodium pyruvate, 50 μM 2-mercaptoethanol and antibiotics (100 U/ml penicillin, 100 μg/ml streptomycin) (Sigma) in Petri dishes for tissue culture (Sarstedt, Nümbrecht, Germany) at 37° C. in a 10% CO2 atmosphere. Human erythroleukemia K562 and mouse lymphoma YAC-1 cells were maintained under the same conditions in Petri dishes for suspension cells (Sarstedt). […] L cells were co-transfected by electroporation with 30 μg of the cosmid A158 (25) containing the MIC3 gene of the rhesus macaque (Macaca mulatta) which is orthologous to human MICA, and with 1 μg of the dsRED vector (Clontech, Mountain View, USA), which confers resistance to geneticin (Invitrogen, Karlsruhe, Germany). After selection with geniticin (1 mg/ml) stable clones were established by limiting dilution, tested for presence of the cosmid by PCR using specific primers (5′-GCT TGC ATT CCC TCC AGG A-3′ (SEQ ID NO: 1) and 5′-TGGACCCTCTGCAGCTGATGT-3′ (SEQ ID NO: 2), length of specific PCR product 1396 bp). MICA mRNA expression was analyzed by Northern blot and cell surface expression by flow cytometry. Four independent clones were tested as target cells for human and rhesus lymphokine-activated killer (LAK) cells with similar results, confirming that MICA expression confers susceptibility to LAK cells. Clone K43 (L-MICA) was selected for the further studies.
Flow cytometry was done on a FACScan flow cytometer (Becton Dickinson, Heidelberg, Germany) using CellQuest software. Expression of intracellular HSP70, T cell receptor (TCR) β, and green fluorescent protein (GFP) in Ge-Hsp70 and Ge-con clones, respectively, was controlled regularly by flow cytometry as described before (15). Cell surface expression of HSP70 was examined on propidium iodide negative cells by a monoclonal antibody (mAb) (RPN 1197, mouse IgG1, multimmune, Regensburg, Germany) that has been reported to detect HSP70 on the plasma membrane (28). MICA/B cell surface expression was determined with the mAb BAMO1 reacting with human MICA and MICB (mouse IgG1, Immatics, Tübingen, Germany). […] Intracellular granzyme B expression was analyzed with the mAb B18.1 (mouse IgG1, Alexis Biochemicals, Grünberg, Germany) after permeabilization of the cells with 0.25% saponin as described before for HSP70 (15). […] The percentage of NK cells in the spleens of SCID mice was determined using the pan-NK cell marker DX5 (rat IgM, PE-conjugated, Caltag Laboratories, Hamburg, Germany). […]

[3] = tested on: NK cells / Ge-con target cells; assay: 51Chromium release assay: lysis of Ge-con melanoma target cells by isolated NK cells; assay type: cell-based, human
Text: Human effector cells were obtained from the peripheral blood of healthy voluntary laboratory co-workers by density gradient centrifugation on Biocoll separating solution (Biochrom). NK cells were isolated from peripheral blood mononuclear cells (PBMC) by magnetic cell sorting (MACS) using a negative selection kit (NK cell isolation Kit II, 130-091-152; Miltenyi Biotec, Bergisch-Gladbach, Germany). The kit contains a cocktail of antibodies against CD3, CD4, CD14, CD15, CD19, CD36, CD123, and CD235a. […] NK cells enriched by MACS were cultured in 24-well plates for tissue culture (Sarstedt) at a density of 2×10^6 cells/ml. To some cultures 2 μg/ml recombinant HSP70, recombinant HSC70, or the HSP70-derived peptide TKD (Bachem, Bubendorf, Switzerland) were added.
Target cells were labeled by incubating 1×10^6 cells in 200 μl HEPES-buffered DMEM containing 100 μl FCS and 50 μCi Na2^51CrO4 (ICN Biomedicals, Eschwege, Germany) for 1 h at 37° C. and washed three times with HEPES-buffered DMEM. […] Spontaneous release was determined by incubation of target cells in the absence of effector cells. The micro titer plates were centrifuged for 5 min at 40×g and incubated at 37° C. for 4 h before being centrifuged again and supernatant and sediment were separately taken to determine radioactivity in each well using a Wallac MicroBeta Trilux counter (PerkinElmer Life Sciences, Köln, Germany).

PBMC = assay: 51Chromium release assay: lysis of L-MICA / L / K562 target cells by human PBMC or LAK cells stimulated in vitro; assay type: cell-based; conditions: for lysis of L-MICA cells by IL-2 treated PBMC, additional stimulatory effect of recombinant protein: PBMC cultured 7 days with IL-2 (100 U/ml) plus 2 μg/ml protein, compared with IL-2 only, FIG. 7A
Procedure: as §3
(§4) Splenocytes from SCID mice were obtained using a Tenbroeck homogeniser and erythrocytes were removed by incubation for 5 min in lysis buffer (155 mM NH4Cl, 10 mM KHCO3, 0.1 mM EDTA, pH 7.4-7.8). Afterwards the cells were used either directly as cytotoxic effector cells or cultured for 24 h in DMEM with 10% FCS and 20% supematant from concanavalin A stimulated lymphocytes before being used in ^51Chromium release assays. Human effector cells were obtained from the peripheral blood of healthy voluntary laboratory co-workers by density gradient centrifugation on Biocoll separating solution (Biochrom). NK cells were isolated from peripheral blood mononuclear cells (PBMC) by magnetic cell sorting (MACS) using a negative selection kit (NK cell isolation Kit II, 130-091-152; Miltenyi Biotec, Bergisch-Gladbach, Germany). […]
as §2

NK cells [4] = assay: Flow cytometry of NK cell markers and intracellular granzyme B after 5 d culture; assay type: cell-based, human; conditions: IL-2 100 U/ml, TKD 2 μg/ml
Procedure: as §4, with “Germany). The kit contains a cocktail of antibodies against CD3, CD4, CD14, CD15, CD19, CD36, CD123, and CD235a. To obtain LAK cells the PBMC were cultured for 4 to 7 days in 5-ml Petri dishes for tissue culture (Sarstedt) at a density of 5 to 10×10^6 cells/ml in DMEM supplemented with 100 U/ml IL-2 (Proleukin, Chiron, Amsterdam, Netherlands). NK cells enriched by MACS were cultured in 24-well plates for tissue culture (Sarstedt) at a density of 2×10^6 cells/ml. To some cultures 2 μg/ml recombinant HSP70, recombinant HSC70, or the HSP70-derived peptide TKD (Bachem, Bubendorf, Switzerland) were added.” for “Germany).”
Flow cytometry was done on a FACScan flow cytometer (Becton Dickinson, Heidelberg, Germany) using CellQuest software. […] MICA/B cell surface expression was determined with the mAb BAMO1 reacting with human MICA and MICB (mouse IgG1, Immatics, Tübingen, Germany). […] Intracellular granzyme B expression was analyzed with the mAb B18.1 (mouse IgG1, Alexis Biochemicals, Grünberg, Germany) after permeabilization of the cells with 0.25% saponin as described before for HSP70 (15). […] The percentage of NK cells in the spleens of SCID mice was determined using the pan-NK cell marker DX5 (rat IgM, PE-conjugated, Caltag Laboratories, Hamburg, Germany). […]

NK cells [5] = conditions: shown before (27); cited from earlier work
NK cells [6] = assay: 51Chromium release assay: lysis of L-MICA target cells by MACS-isolated NK cells or NK cell depleted PBMC; assay type: cell-based, human
Procedure: as §1, §2

## O=C(CCCCCCC(=O)Nc1ccccc1)NO [SAHA, suberoylanilide hydroxyamic acid]
[1]
  susceptibility of treated Ge-con and Ge-Hsp70 cells to lysis by LAK cells versus untreated cells: significantly more susceptible to lysis by LAK cells than untreated cells; also recorded: lysed signifcantly better than untreated cells
[2]
  HSP70 cell surface expression on Ge cells after histone deacetylase inhibitor treatment: not found
  MICA/B cell surface expression on Ge-con and Ge-Hsp70 cells: induced
[3]; target cells 10 μM SAHA 20 h, p<0.0001, three-way ANOVA, effector:target 2.5:1 and 1.25:1
  susceptibility of Ge target cells to NK cells after SAHA treatment: augmented their susceptibility to NK cells

## CC(/C=C/C(=O)NO)=C\[C@@H](C)C(=O)c1ccc(N(C)C)cc1 [trichostatin A]
[2]
  HSP70 cell surface expression on Ge cells after histone deacetylase inhibitor treatment: not found
  MICA/B cell surface expression on Ge-con and Ge-Hsp70 cells: induced

## HSC70: His-tagged recombinant constitutively expressed HSC70 from the rat Hsc70 gene, produced in E. coli
PBMC
  lysis of L-MICA cells by IL-2 treated PBMC, additional stimulatory effect of recombinant protein: but not HSC70 was able to further activate PBMC to kill MICA expressing target cells

## HSP70: His-tagged recombinant stress-inducible HSP70 protein derived from the rat Hsp70-1 gene, produced in E. coli
PBMC; 7 days IL-2 (100 U/ml) plus HSP70 (2 μg/ml), tested in parallel with LPS (10 ng/ml), 6 experiments, p=0.0374, FIG. 7B
  capacity of LAK cells to kill L-MICA cells: significantly increased
PBMC
  lysis of L-MICA cells by IL-2 treated PBMC, additional stimulatory effect of recombinant protein: further increased lysis of the L-MICA cells

## TKDNNLLGRFELSG
PBMC; 7 days, IL-2 100 U/ml, TKD 2 μg/ml, p=0.0012, FIG. 7C
  lysis of L-MICA cells by PBMC stimulated with IL-2 and TKD versus IL-2 only: lysed L-MICA cells significantly better
NK cells [4]
  mean fluorescence intensity of NKG2D and CD94, IL-2 and TKD versus IL-2 alone: no significant difference was detectable
NK cells [4]; 5 experiments, FIG. 10D
  intracellular granzyme B expression, IL-2 plus TKD versus IL-2 alone: tendency towards increased expression
NK cells [4]; FIG. 10C
  percentage of CD56 positive NK cells, IL-2 plus TKD versus IL-2: no difference was observed
NK cells [5]
  ability to stimulate NK cells to lyse HSP70 cell surface positive target cells: equivalent to the full length HSP70
NK cells [6]; NK cell depleted PBMC, 5 days IL-2 (100 U/ml) or IL-2 plus TKD (2 μg/ml), effector:target ratios up to 200:1, FIG. 8B
  killing of L-MICA cells by stimulated NK cell depleted PBMC: did not result in a cell population that was able to kill L-MICA cells
NK cells [6]; NK cell enriched fraction, 5 days IL-2 (100 U/ml) plus TKD (2 μg/ml) versus IL-2, 7 experiments, p<0.0001, FIG. 8C
  activity of the NK cells against L-MICA cells: significantly improve
[3]; NK cells 5 days IL-2 (100 U/ml) plus TKD (2 μg/ml) versus IL-2, TKD p=0.0055, three-way ANOVA, effector:target 2.5:1 and 1.25:1
  capability of NK cells to lyse Ge-con target cells after stimulation: increased their capability to lyse target cells
[3]; TKD 2 μg/ml plus IL-2 5 days, SAHA 10 μM 20 h, interaction p=0.0003, especially at lower effector:target ratios, FIG. 10B
  killing of Ge-con target cells: combination of TKD treatment of NK cells and SAHA treatment of target cells: acted synergistically
